Experimental data: US11414404B2, “Compounds for the treatment of BRAF-associated diseases and disorders” (Array BioPharma Inc., priority 2019, dated 2022)

Tests used:
[1] = MDR1 LLC-PK1 and BCRP MDCKII permeability assay: permeability coefficient (Papp)
Description: (§1) Both LLC-PK1 and MDR1 transfected LLC-PK1 cells were cultured and plated according to manufacturer's recommendations with the exception that the passage media contained only 2% fetal bovine serum to extend passage time out to seven days.
BCRP transfected MDCKII cells were cultured and plated according to manufacturer's recommendations. Assay conditions included with and without the BCRP-specific inhibitor, K0143, at a concentration of 0.3 μM to ascertain the contribution of BCRP to the efflux value of the test compound.
(§2) Both positive and negative controls were used to assess functionality of P-gp or BCRP efflux in the assays. […] Final organic concentration in the assay was 1%. All dosing solutions contained 10 μM lucifer yellow to monitor LLC-PK1 or MDCKII cell monolayer integrity.
(§3) For the apical to basolateral determination (A to B), 75 μL of the test article in transport buffer were added to the apical side of the individual transwells and 250 μL of basolateral media, without compound or lucifer yellow, were added to each well. For the basolateral to apical determination (B to A), 250 μL of test article in transport buffer were added to each well and 75 μL transport buffer, without compound or lucifer yellow, were added to each transwell. All tests were performed in triplicate, and each compound was tested for both apical to basolateral and basolateral to apical transport. The plates were incubated for 2 hours on a Lab-Line Instruments Titer Orbital Shaker (VWR, West Chester, Pa.) at 50 rpm and 37° C. with 5% CO2. All culture plates were removed from the incubator and 50 μL of media were removed from the apical and basolateral portion of each well and added to 150 μL of 1 μM labetalol in 2:1 acetonitrile (acetonitrile): H2O, v/v.
(§4) These values were accepted when found to be below 2% for apical to basolateral and 5% basolateral to apical flux across the MDR1-transfected LLC-PK1 or BCRP-transfected MDCKII cell monolayers. The plates were sealed and the contents of each well analyzed by LC-MS/MS. The compound concentrations were determined from the ratio of the peak areas of the compound to the internal standard (labetalol) in comparison to the dosing solution.
(§5) The LC-MS/MS system was comprised of an HTS-PAL autosampler (Leap Technologies, Carrboro, N.C.), an HP1200 HPLC (Agilent, Palo Alto, Calif.), and a MDS Sciex 4000 Q Trap system (Applied Biosystems, Foster City, Calif.). […] The total run time, including re-equilibration, for a single injection was 1.2 minutes. Mass spectrometric detection of the analytes was accomplished using the ion spray positive mode.
where Cd, V, t and C0 are the detected concentration (μM), the volume on the dosing side (mL); the incubation time (s) and the initial dosing concentration (μM), respectively. The calculations for Papp were made for each replicate and then averaged.

[2] = target: full-length FLAG-tagged B-Raf(V600E) (Homo sapiens (Human), UniProt P15056, V600E); assay: BRAF V600E enzyme assay (TR-FRET competitive displacement of fluorescent tracer); type: binding; conditions: averaged IC50; 60 min at ambient temperature; 11-point dosing, top dose 10 μM
full-length FLAG-tagged B-Raf(V600E), sequence (P15056 whole entry V600E): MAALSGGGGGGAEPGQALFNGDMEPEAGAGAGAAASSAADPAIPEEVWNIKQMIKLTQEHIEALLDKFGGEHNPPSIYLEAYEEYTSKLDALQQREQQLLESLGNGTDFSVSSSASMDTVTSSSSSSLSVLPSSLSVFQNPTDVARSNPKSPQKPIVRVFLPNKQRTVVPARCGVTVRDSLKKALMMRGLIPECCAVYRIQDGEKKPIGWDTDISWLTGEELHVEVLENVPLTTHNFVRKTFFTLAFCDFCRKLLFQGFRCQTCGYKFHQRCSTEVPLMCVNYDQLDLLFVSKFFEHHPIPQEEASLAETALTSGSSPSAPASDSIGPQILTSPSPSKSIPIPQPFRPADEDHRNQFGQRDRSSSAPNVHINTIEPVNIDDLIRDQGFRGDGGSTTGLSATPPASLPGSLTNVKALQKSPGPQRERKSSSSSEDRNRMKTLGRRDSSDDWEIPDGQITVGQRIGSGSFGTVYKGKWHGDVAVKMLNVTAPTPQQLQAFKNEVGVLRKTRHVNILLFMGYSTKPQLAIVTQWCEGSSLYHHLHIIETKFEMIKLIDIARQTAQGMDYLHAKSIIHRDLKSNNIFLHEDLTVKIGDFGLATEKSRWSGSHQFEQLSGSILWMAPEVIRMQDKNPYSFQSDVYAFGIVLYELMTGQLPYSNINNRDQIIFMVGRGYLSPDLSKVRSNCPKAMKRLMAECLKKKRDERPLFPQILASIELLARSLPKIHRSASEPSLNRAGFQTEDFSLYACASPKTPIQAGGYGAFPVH
Source text: A competitive displacement assay was configured for B-Raf that monitors the amount of a fluorescently-tagged “tracer” bound to B-Raf via TR-FRET from an anti-tag Eu-labeled antibody also bound to B-Raf.
[formula] • where: • Xmax Average Uninhibited Controls • Xmin Average Background
A 4-parameter logistic model was the fit to the POC data for each compound.

[3] = target: BCRP (Homo sapiens (Human), UniProt Q9UNQ0); assay: BCRP MDCKII permeability assay: efflux ratio; conditions: dog
BCRP, sequence (Q9UNQ0 whole entry, species assumed): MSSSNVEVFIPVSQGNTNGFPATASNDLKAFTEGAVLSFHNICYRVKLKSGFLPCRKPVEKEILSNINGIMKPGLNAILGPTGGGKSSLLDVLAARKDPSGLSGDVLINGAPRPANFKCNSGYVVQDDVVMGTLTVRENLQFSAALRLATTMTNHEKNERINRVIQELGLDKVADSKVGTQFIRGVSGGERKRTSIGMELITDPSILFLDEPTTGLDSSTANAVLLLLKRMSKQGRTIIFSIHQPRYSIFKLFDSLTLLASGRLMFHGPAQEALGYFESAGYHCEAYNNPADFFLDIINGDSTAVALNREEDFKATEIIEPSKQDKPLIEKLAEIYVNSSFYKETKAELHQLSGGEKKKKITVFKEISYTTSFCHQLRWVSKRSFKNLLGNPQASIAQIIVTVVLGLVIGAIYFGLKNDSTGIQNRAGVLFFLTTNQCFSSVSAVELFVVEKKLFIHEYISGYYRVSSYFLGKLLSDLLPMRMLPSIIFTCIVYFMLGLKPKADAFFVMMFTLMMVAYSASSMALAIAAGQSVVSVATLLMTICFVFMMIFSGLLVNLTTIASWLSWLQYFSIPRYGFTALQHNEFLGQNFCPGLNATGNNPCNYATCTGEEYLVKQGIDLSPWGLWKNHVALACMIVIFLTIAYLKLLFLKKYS

[4] = target: P-gp (MDR1) (Homo sapiens (Human), UniProt P08183); assay: MDR1 LLC-PK1 permeability assay: efflux ratio; conditions: pig, LLC-PK1
P-gp (MDR1), sequence (P08183 whole entry, species assumed): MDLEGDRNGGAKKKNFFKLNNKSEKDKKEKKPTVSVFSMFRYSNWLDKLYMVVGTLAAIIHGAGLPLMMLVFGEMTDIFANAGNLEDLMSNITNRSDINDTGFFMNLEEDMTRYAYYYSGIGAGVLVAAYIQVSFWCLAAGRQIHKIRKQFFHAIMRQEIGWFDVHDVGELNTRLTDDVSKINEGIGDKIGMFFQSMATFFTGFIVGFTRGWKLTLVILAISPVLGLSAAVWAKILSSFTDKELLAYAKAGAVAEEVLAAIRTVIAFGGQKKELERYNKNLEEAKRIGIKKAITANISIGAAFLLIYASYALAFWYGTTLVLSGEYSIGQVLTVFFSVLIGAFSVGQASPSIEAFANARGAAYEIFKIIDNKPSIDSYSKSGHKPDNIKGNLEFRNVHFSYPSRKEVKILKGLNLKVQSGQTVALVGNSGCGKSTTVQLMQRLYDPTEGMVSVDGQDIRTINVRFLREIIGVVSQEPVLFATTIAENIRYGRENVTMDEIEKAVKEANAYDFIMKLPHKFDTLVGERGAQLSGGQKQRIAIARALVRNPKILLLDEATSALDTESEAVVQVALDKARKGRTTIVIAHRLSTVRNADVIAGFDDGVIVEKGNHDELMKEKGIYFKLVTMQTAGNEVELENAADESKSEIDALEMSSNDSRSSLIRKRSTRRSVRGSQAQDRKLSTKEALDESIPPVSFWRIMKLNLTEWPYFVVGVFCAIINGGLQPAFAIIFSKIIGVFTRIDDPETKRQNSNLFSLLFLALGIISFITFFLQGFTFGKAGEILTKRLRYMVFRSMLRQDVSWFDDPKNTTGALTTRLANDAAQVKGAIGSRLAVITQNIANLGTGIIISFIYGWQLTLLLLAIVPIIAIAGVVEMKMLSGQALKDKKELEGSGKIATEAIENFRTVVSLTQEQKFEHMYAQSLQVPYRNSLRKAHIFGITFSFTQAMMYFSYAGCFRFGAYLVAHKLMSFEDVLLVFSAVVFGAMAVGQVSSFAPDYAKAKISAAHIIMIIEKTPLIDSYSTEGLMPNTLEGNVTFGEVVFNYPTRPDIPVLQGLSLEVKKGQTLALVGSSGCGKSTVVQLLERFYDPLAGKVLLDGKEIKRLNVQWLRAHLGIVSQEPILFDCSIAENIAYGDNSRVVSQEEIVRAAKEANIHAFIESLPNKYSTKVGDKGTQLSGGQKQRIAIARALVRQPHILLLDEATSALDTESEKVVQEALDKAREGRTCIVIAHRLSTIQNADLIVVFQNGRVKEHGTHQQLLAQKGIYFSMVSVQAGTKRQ
Description: as §1, §2, §3, §4, §5
An efflux ratio is calculated from the mean apical to basolateral (A−B) Papp data and basolateral to apical (B−A) Papp data: Efflux ratio=Papp(B−A)/Papp(A−B)

[5] = PK (free brain-to-free plasma ratio) (mouse); type: in vivo; conditions: mouse; unbound brain-to-unbound plasma concentration ratio; male CD-1 mice; oral gavage 10 mg/kg; sampling 2-24 hours; read-out: B/P ratio (free)
Description: PK (Free Brain-to-Free Plasma Ratio) (Mouse)
The ability of representative compounds to penetrate the BBB in mice was determined by evaluating the unbound brain-to-unbound plasma (also referred to as free brain-to-free plasma) concentration ratio in male CD-1 mice.
Brain samples were stored at −20±5° C. prior to analysis. Concentrations of test compound in mouse brain homogenate were determined by liquid chromatography tandem mass spectrometry (LC-MS/MS) following protein precipitation with acetonitrile. A 12-point calibration curve, ranging from 0.5 to 10,000 ng/mL, was prepared in duplicate. A solution of 400 μg/mL of test compound in dimethyl sulfoxide (DMSO) was serially diluted (3-fold) in 100% DMSO, and then 2.5 μL of each standard solution was added to 100 μL of naïve male CD-1 mice brain homogenate. To mimic the extraction in the standard curve, 2.5 μL of DMSO was added to all test samples. Both calibration and test brain homogenate samples were spiked with 10 μL of an IS (1 μg/mL of a structural analog). Brain homogenate was generated by adding 0.75 mL of 4:1 water:MeOH to each brain sample followed by homogenization for 1 minute with bead beater tubes a 6 m/s using an MP Fast Prep-24®. Proteins were precipitated from 100 μL of brain homogenate sample by the addition of 300 μL of acetonitrile. […] A 100 μL aliquot of each supernatant was transferred via a 550 μL Personal Pipettor (Apricot Designs, Monrovia, Calif.) to 96-well plates and diluted 1:1 with HPLC grade water. The resulting plates were sealed with aluminum for LC-MS/MS analysis.
Brain-to-plasma ratios were calculated using the concentration of compound measured in the brain divided by the concentration of compound measured in the plasma. Brain-to-plasma ratios were always generated from a single animal and time point. Free brain-to-free plasma ratios were calculated by multiplying the brain-to-plasma ratio by the in vitro brain homogenate free fraction divided by the in vitro plasma free fraction using the following equation: (B/P)*(Bfu/Pfu).

Papp at 2 h, 1 µM [1] [×10⁻⁶ cm/s]	IC50 [2] [nM]	efflux ratio at 2 h, 1 µM [3]	efflux ratio at 2 h, 1 µM [4]	Kp,uu (unbound brain/unbound plasma ratio) [5]	Structure (SMILES)
29	9.25	2.35	2.3		C#Cc1c(Nc2c(F)ccc(NS(=O)(=O)CCC)c2Cl)ccc2ncn(C)c(=O)c12 [Example 60, N-(2-chloro-3-((5-ethynyl-3-methyl-4-oxo-3,4-dihydroquinazolin-6-yl)amino)-4-fluorophenyl)propane-1-sulfonamide]
26.6	97.7	0.84	1.2		CCC(C)S(=O)(=O)Nc1ccc(F)c(Nc2ccc3ncn(C)c(=O)c3c2C)c1Cl (stereo not shown) [Example 61, N-(2-chloro-3-((3,5-dimethyl-4-oxo-3,4-dihydroquinazolin-6-yl)amino)-4-fluorophenyl)butane-2-sulfonamide]
26.3	15.8	22.5	2.3		CCCS(=O)(=O)Nc1ncc(F)c(Oc2ccc3ncn(C)c(=O)c3c2C)c1F [Example 62, N-(4-((3,5-dimethyl-4-oxo-3,4-dihydroquinazolin-6-yl)oxy)-3,5-difluoropyridin-2-yl)propane-1-sulfonamide]
9.78	10.4	31	10.9		Cc1c(Oc2c(F)cnc(NS(=O)(=O)CCCF)c2F)ccc2ncn(C)c(=O)c12 [Example 64, N-(4-((3,5-dimethyl-4-oxo-3,4-dihydroquinazolin-6-yl)oxy)-3,5-difluoropyridin-2-yl)-3-fluoropropane-1-sulfonamide]
177	92.4	0.9	1.4		CCCS(=O)(=O)Nc1ccc(F)c(Sc2ccc3ncn(C)c(=O)c3c2C)c1Cl [Example 65, N-(2-chloro-3-((3,5-dimethyl-4-oxo-3,4-dihydroquinazolin-6-yl)thio)-4-fluorophenyl)propane-1-sulfonamide]
23.1	4.08	27.9	1.7		CCCS(=O)(=O)Nc1cccc(Oc2ccc3ncn(C)c(=O)c3c2C)c1C#N [Example 66, N-{2-Cyano-3-[(3,5-dimethyl-4-oxo-3,4-dihydroquinazolin-6-yl)oxy]phenyl}propane-1-sulfonamide]
28.5	33	1.3	1.2		CCCS(=O)(=O)Nc1cccc(Oc2ccc3ncn(C)c(=O)c3c2C)c1F [Example 68, N-(3-((3,5-dimethyl-4-oxo-3,4-dihydroquinazolin-6-yl)oxy)-2-fluorophenyl)propane-1-sulfonamide]
24.4	0.46	23.8	4.1		CCCS(=O)(=O)Nc1ccc(F)c(Oc2ccc3ncn(C)c(=O)c3c2C)c1C#N [Example 69, N-(2-cyano-3-((3,5-dimethyl-4-oxo-3,4-dihydroquinazolin-6-yl)oxy)-4-fluorophenyl)propane-1-sulfonamide]
19.1	2.55	1.17	1.73		CCCS(=O)(=O)Nc1cc(Cl)cc(Oc2ccc3ncn(C)c(=O)c3c2C)c1F [Example 70, N-(5-chloro-3-((3,5-dimethyl-4-oxo-3,4-dihydroquinazolin-6-yl)oxy)-2-fluorophenyl) propane-1-sulfonamide]
25.1	16.4	0.86	2.4		CCCS(=O)(=O)Nc1ccc(F)c(Oc2ccc3ncn(C)c(=O)c3c2C)c1F [Example 71, N-(3-((3,5-dimethyl-4-oxo-3,4-dihydroquinazolin-6-yl)oxy)-2,4-difluorophenyl)propane-1-sulfonamide]
25.6	7.7	1.81	1.86		CCCS(=O)(=O)Nc1cc(F)c(F)c(Oc2ccc3ncn(C)c(=O)c3c2C)c1F [Example 72, N-(3-((3,5-dimethyl-4-oxo-3,4-dihydroquinazolin-6-yl)oxy)-2,4,5-trifluorophenyl)propane-1-sulfonamide]
47.5	1.55	0.3	0.93		CCCS(=O)(=O)Nc1cc(F)c(F)c(Oc2ccc3ncn(C)c(=O)c3c2C)c1Cl [Example 73, N-(2-chloro-3-((3,5-dimethyl-4-oxo-3,4-dihydroquinazolin-6-yl)oxy)-4,5-difluorophenyl)propane-1-sulfonamide]
28.4	3.55	0.92	1.13		CCCS(=O)(=O)Nc1cc(F)cc(Oc2ccc3ncn(C)c(=O)c3c2C)c1Cl [Example 74, N-(2-chloro-3-((3,5-dimethyl-4-oxo-3,4-dihydroquinazolin-6-yl)oxy)-5-fluorophenyl)propane-1-sulfonamide]
21.5	74.8	0.73	1.57		CCCS(=O)(=O)Nc1cc(C)cc(Oc2ccc3ncn(C)c(=O)c3c2C)c1F [Example 75, N-(3-((3,5-dimethyl-4-oxo-3,4-dihydroquinazolin-6-yl)oxy)-2-fluoro-5-methylphenyl)propane-1-sulfonamide]
31.8	5.1	1.26	1.45		CCCS(=O)(=O)Nc1cc(F)cc(Oc2ccc3ncn(C)c(=O)c3c2C)c1F [Example 76, N-(3-((3,5-dimethyl-4-oxo-3,4-dihydroquinazolin-6-yl)oxy)-2,5-difluorophenyl)propane-1-sulfonamide]
25.6	4.25	4.24	1.91		Cc1c(Oc2cc(F)cc(NS(=O)(=O)CCCF)c2F)ccc2ncn(C)c(=O)c12 [Example 77, N-(3-((3,5-dimethyl-4-oxo-3,4-dihydroquinazolin-6-yl)oxy)-2,5-difluorophenyl)-3-fluoropropane-1-sulfonamide]
29	10.8	0.96	1.16		CCCS(=O)(=O)Nc1cccc(Oc2ccc3ncn(C)c(=O)c3c2C)c1Cl [Example 78, N-(2-chloro-3-((3,5-dimethyl-4-oxo-3,4-dihydroquinazolin-6-yl)oxy)phenyl)propane-1-sulfonamide]
23.1	8.55	1.06	2.14		Cc1c(Oc2cccc(NS(=O)(=O)CCCF)c2Cl)ccc2ncn(C)c(=O)c12 [Example 79, N-(2-chloro-3-((3,5-dimethyl-4-oxo-3,4-dihydroquinazolin-6-yl)oxy)phenyl)-3-fluoropropane-1-sulfonamide]
42.5	20.8	2.03	1.3		Cc1c(Oc2cccc(NS(=O)(=O)CCCF)c2F)ccc2ncn(C)c(=O)c12 [Example 80, N-(3-((3,5-dimethyl-4-oxo-3,4-dihydroquinazolin-6-yl)oxy)-2-fluorophenyl)-3-fluoropropane-1-sulfonamide]
		8.6	1.9	0.12 to 0.15	Cn1cnc2ccc(Nc3c(F)ccc(NS(=O)(=O)CCCF)c3Cl)c(Cl)c2c1=O [WO 2012/118492 Ex. 37, reference compound]
		7.68	8.89	0.08 to 0.14	Cn1cnc2ccc(Nc3c(F)ccc(NS(=O)(=O)CCCF)c3Cl)cc2c1=O [WO 2012/118492 Example 34, reference compound]
